The record followed here is article PMC11727579, “Thermal proteome profiling unveils protein targets of deoxycholic acid in living neuronal cells” (Advanced Biotechnology, 2023).

One assay concerns the target T1, Nicastrin (Homo sapiens, UniProt Q92542).
T1 construct: gene NCSTN
The assay is described as follows: thermal proteome profiling (iTRAQ LC-MS/MS), isothermal dose-response stabilization at […] °C, SH-SY5Y cells. In kind it is biochemical.

The target in another assay is T2, Casein kinase 1 epsilon (Homo sapiens, UniProt P49674).
T2 construct: gene CSNK1E
Described as above. In kind it is biochemical.

T1 sequence (Q92542 34-709): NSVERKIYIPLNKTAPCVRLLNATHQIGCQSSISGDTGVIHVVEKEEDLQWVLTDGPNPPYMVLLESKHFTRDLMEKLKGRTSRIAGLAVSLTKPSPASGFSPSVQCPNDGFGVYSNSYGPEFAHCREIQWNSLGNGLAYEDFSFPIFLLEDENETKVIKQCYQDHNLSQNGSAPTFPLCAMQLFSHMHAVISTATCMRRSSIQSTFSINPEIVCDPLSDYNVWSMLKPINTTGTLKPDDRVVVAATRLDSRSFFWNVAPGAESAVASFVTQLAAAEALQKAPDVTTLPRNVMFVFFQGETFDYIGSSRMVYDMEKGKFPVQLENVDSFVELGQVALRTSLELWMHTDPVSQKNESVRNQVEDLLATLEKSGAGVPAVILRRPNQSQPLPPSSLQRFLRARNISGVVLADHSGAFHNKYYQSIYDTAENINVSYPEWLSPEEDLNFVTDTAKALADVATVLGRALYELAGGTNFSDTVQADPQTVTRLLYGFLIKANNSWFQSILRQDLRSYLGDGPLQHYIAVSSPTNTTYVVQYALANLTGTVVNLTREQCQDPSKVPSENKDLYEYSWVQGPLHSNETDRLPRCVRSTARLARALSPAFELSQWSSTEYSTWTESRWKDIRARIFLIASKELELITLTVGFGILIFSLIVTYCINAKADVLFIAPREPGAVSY
T2 sequence (P49674 whole entry): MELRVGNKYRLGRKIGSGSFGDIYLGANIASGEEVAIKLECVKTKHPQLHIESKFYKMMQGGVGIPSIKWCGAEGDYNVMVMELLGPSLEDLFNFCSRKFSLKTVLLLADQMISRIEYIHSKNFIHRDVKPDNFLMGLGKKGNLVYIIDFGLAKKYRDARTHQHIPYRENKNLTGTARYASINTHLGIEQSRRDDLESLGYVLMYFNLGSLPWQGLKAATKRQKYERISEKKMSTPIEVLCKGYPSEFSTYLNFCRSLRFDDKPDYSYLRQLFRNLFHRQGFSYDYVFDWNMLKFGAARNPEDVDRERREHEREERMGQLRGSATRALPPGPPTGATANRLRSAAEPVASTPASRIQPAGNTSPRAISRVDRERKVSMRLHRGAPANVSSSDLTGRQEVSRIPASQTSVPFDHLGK

`C[C@H](CCC(=O)O)[C@H]1CC[C@H]2[C@@H]3CC[C@@H]4C[C@H](O)CC[C@]4(C)[C@H]3C[C@H](O)[C@]12C` [deoxycholic acid]: the EC50 was 6.03 µM at Nicastrin and 7.22 µM at Casein kinase 1 epsilon.
